Our source for the EC50, Activity and IC50 values is ChEMBL document CHEMBL1148806 (J Med Chem, 2007).

Assay [1] deals with T1, Beta-2 adrenergic receptor (Cavia porcellus, UniProt Q8K4Z4).
The target of assay [2] is T2, Beta-2 adrenergic receptor (Rattus norvegicus, UniProt P10608). Put plainly: Vasodilating activity against phenylephrine-induced contractions in rat thoracic aorta.
The target in assay [3] is Beta-2 adrenergic receptor (Rattus norvegicus) (UniProt P10608). The format is functional, tissue-based. As to conditions: Thoracic aorta, 100 uM.
Assay [4] is described as follows: Effect on nitric oxide release in phosphate buffer at pH 7.4 in presence of cysteine at 100 uM. It counts as functional.
The subject of assay [5] is Liver microsomes. Briefly: Antioxidant activity in rat hepatic microsomal membrane at 1 mM. It counts as functional. As to conditions: Microsome.
Assay [6] concerns Liver microsomes. Briefly: Antioxidant activity in rat hepatic microsomal membrane.
Assay [7] deals with T2, Beta-2 adrenergic receptor.
Description: Vasodilating activity against phenylephrine-induced contraction in rat thoracic aorta in presence of 1H-[1,2,4]oxadiazolo-[4,3-a]quinoxalin-1-one
For assay [8], the target named is Beta-2 adrenergic receptor (Cavia porcellus) (UniProt Q8K4Z4). Put plainly: Agonist activity at adrenergic beta-2 receptor in guinea pig tracheal rings assessed as myorelaxing activity on carbachol-induced contraction at 100 uM. The format is functional. Set-up: scale not given: the % may be the effect or the level left.
Assay [9] has as its target Beta-2 adrenergic receptor (Rattus norvegicus) (UniProt P10608). Briefly: Vasodilating activity in rat thoracic aorta on phenylephrine-induced contraction at 100 uM. It counts as functional, tissue-based.
Assay [10] deals with T1, Beta-2 adrenergic receptor. This is another data set of the same source.
Description: Agonist activity at adrenergic beta-2 receptor in guinea pig tracheal rings assessed as myorelaxing activity on carbachol-induced contraction in presence of 1H-[1,2,4]oxadiazolo-[4,3-a]quinoxalin-1-one
The target of assay [11] is T1, Beta-2 adrenergic receptor. The source holds these as a separate data set.

SMILES strings stand for the structures. Activity calls are given as the source filed them. The rule behind the calls is not given here.

Chain of Beta-2 adrenergic receptor (Rattus norvegicus) (P10608 whole entry, looked up): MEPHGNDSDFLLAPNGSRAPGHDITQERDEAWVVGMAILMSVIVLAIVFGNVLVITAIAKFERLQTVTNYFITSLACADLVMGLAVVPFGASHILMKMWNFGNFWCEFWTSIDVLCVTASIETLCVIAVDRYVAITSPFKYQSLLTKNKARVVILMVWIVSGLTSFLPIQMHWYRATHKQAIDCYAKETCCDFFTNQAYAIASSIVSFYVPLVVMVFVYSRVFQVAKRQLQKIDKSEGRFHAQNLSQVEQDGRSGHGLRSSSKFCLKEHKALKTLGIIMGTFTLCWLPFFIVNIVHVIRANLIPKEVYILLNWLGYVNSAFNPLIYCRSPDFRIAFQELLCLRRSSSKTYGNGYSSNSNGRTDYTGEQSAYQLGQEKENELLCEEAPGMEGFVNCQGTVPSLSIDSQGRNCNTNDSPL
T2 sequence (P10608 whole entry): as the sequence (P10608 whole entry, looked up) above
T1 sequence (Q8K4Z4 whole entry): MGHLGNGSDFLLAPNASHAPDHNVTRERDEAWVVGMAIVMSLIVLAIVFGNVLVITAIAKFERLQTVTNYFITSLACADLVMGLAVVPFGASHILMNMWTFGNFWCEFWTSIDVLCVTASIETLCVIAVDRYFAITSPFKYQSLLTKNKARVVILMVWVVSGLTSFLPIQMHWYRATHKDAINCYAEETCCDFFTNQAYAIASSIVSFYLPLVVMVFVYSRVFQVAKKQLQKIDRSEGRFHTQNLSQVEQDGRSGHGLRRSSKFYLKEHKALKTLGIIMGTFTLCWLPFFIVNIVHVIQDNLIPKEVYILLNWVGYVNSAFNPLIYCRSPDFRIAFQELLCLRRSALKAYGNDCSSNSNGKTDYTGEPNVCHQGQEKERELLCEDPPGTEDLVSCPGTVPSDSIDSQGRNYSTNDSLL
Chain of Beta-2 adrenergic receptor (Cavia porcellus) (Q8K4Z4 whole entry, looked up): as the sequence (Q8K4Z4 whole entry) above

A word on the EC50: it is the concentration needed to bring the measured effect to its halfway point. Consider `NC(=O)c1c(CO)no[n+]1[O-]`, for which the values for the EC50 in assay [1] and in assay [2] were 86000 nM and 6300 nM, respectively. The Activity in assay [3] was < 50%; in assay [4] it was 12%. Moreover, in [5], the outcome was inactive.
A word on the IC50: it is the point on the concentration scale where inhibition reaches its midpoint. Regarding `CCOc1no[n+]([O-])c1S(=O)(=O)c1ccccc1`, the EC50 in assay [1] is 2300 nM; in [2] it was 12 nM; in assay [7] it was 1200 nM. Moreover, the Activity in assay [4] was determined as 36%. This compound also came in with a half-inhibitory concentration (IC50) in [6] of 110000 nM.
On to `Cc1c(CO)no[n+]1[O-]`, for which the Activity in assay [4] is < 1%; in assay [8], < 50%; in assay [9] it was < 50%. Moreover, in [5], the outcome was inactive.
In the case of `CC(Cc1ccc(OCc2no[n+]([O-])c2C(N)=O)cc1)NCC(O)c1cc(O)cc(O)c1` (racemic) [listing 1 of 2 here], the EC50 in assay [1] came to 1000 nM; in [2] it was 1200 nM; in assay [10], 1100 nM; in [7] it was 16000 nM.
For the compound `CC(Cc1ccc(OCc2no[n+]([O-])c2C(N)=O)cc1)NCC(O)c1cc(O)cc(O)c1` (racemic) [listing 2 of 2 here], the Activity in assay [4] was 10.4%.
With `CC(Cc1ccc(Oc2no[n+]([O-])c2S(=O)(=O)c2ccccc2)cc1)NCC(O)c1cc(O)cc(O)c1` (stereo in doubt; 15a) [listing 1 of 2 here], the EC50 in assay [1] worked out at 18 nM; in assay [2] it was 14 nM; in assay [10], 17 nM; in assay [7], 860 nM. Also, the IC50 in [6] was 13500 nM.
For `CC(Cc1ccc(Oc2no[n+]([O-])c2S(=O)(=O)c2ccccc2)cc1)NCC(O)c1cc(O)cc(O)c1` (stereo in doubt; 15a) [listing 2 of 2 here], the Activity in assay [4] was found to be 28.4%.
Regarding `CC(Cc1ccc(Oc2no[n+]([O-])c2S(=O)(=O)c2ccccc2)cc1)NCC(O)c1cc(O)cc(O)c1` (stereo in doubt; 15b) [listing 1 of 2 here], the EC50 in [1] was 250 nM; in assay [2], 14 nM; in [10], 440 nM; in assay [7], 1300 nM.
With `CC(Cc1ccc(Oc2no[n+]([O-])c2S(=O)(=O)c2ccccc2)cc1)NCC(O)c1cc(O)cc(O)c1` (stereo in doubt; 15b) [listing 2 of 2 here], in [4], the Activity was 27.5%.
As for `CC(Cc1ccc(Oc2nonc2S(=O)(=O)c2ccccc2)cc1)NCC(O)c1cc(O)cc(O)c1` (stereo in doubt; 16a), the EC50 in [1] was 39 nM. The same compound showed a half-maximal inhibitory concentration (IC50) in assay [6] of 57000 nM.
For `CC(Cc1ccc(Oc2nonc2S(=O)(=O)c2ccccc2)cc1)NCC(O)c1cc(O)cc(O)c1` (stereo in doubt; 16b), the EC50 in assay [11] amounted to 39 nM.
Take `CC(Cc1ccc(OCc2no[n+]([O-])c2C(N)=O)cc1)NCC(O)c1cc(O)cc(O)c1` (stereo in doubt; 34a) [listing 1 of 2 here]: the EC50 in assay [1] is 110 nM; in [2], 1200 nM; in assay [10], 130 nM; in [7] it was 14000 nM. In assay [6], this compound registered an IC50 of 156000 nM.
Regarding `CC(Cc1ccc(OCc2no[n+]([O-])c2C(N)=O)cc1)NCC(O)c1cc(O)cc(O)c1` (stereo in doubt; 34a) [listing 2 of 2 here], in assay [4], the Activity came to 11.5%.
`CC(Cc1ccc(OCc2nonc2C(N)=O)cc1)NCC(O)c1cc(O)cc(O)c1` (stereo in doubt; 35a) yielded an EC50 in [1] of 29 nM. Further, the IC50 in assay [6] is 286000 nM.
Compound `CC(Cc1ccc(OCc2nonc2C(N)=O)cc1)NCC(O)c1cc(O)cc(O)c1` (stereo in doubt; 35b) displayed an EC50 in assay [1] of 170 nM.
On to `Cc1c(COc2ccc(CC(C)NCC(O)c3cc(O)cc(O)c3)cc2)no[n+]1[O-]` (stereo in doubt; 36a) [listing 1 of 2 here], for which the values for the EC50 in [1], in assay [2] and in assay [10] were 220 nM, 18000 nM and 230 nM, respectively. In assay [6], the IC50 came to 298000 nM.
On to `Cc1c(COc2ccc(CC(C)NCC(O)c3cc(O)cc(O)c3)cc2)no[n+]1[O-]` (stereo in doubt; 36a) [listing 2 of 2 here], for which the Activity in assay [3] is < 50%; in assay [4], < 1%.
Take `Cc1c(COc2ccc(CC(C)NCC(O)c3cc(O)cc(O)c3)cc2)no[n+]1[O-]` (stereo in doubt; 36b) [listing 1 of 2 here]: the figures for the EC50 in assay [1], in assay [2] and in assay [10] were 1300 nM, 20000 nM and 1200 nM, respectively.
Consider `Cc1c(COc2ccc(CC(C)NCC(O)c3cc(O)cc(O)c3)cc2)no[n+]1[O-]` (stereo in doubt; 36b) [listing 2 of 2 here], for which the Activity in assay [3] was < 50%; in assay [4] it was < 1%.
`Cc1nonc1COc1ccc(CC(C)NCC(O)c2cc(O)cc(O)c2)cc1` (stereo in doubt; 37a): in [1], the response was half-maximal at 110 nM (EC50). This compound registered an IC50 in [6] of 123000 nM.
The compound `Cc1nonc1COc1ccc(CC(C)NCC(O)c2cc(O)cc(O)c2)cc1` (stereo in doubt; 37b) showed an EC50 in assay [1] of 2200 nM.
